{"source": "patent US9011938B2", "about": "“Methods and formulations for treating chronic liver disease” (priority 2008, dated 2015)", "origin": "cited, not measured here", "key": {"[1]": {"test_system": "HCV internal ribosome entry site (IRES)", "settings": "in vitro, dose-dependant, not competitive binding"}, "[2]": {"test_system": "mice induced with an immunological liver injury"}, "[3]": {"test_system": "rats with fatty liver induced by a high-fat diet"}, "[4]": {"test_system": "tumor necrosis factor-alpha (TNF-α)", "settings": "subjects suffering from alcoholic hepatitis"}}, "note": "Counter-ions that a name gives are not always drawn.", "data": [{"molecule": "cyanocobalamin [vitamin B12]", "values": [{"measurement": "HCV IRES-dependent translation of a reporter gene", "setting": "[1]", "result": "inhibit"}]}, {"molecule": "C[C@@]12C[C@@]3(O)O[C@@H](O1)[C@]1(COC(=O)c4ccccc4)[C@H]3C[C@@]12O[C@@H]1O[C@H](CO)[C@@H](O)[C@H](O)[C@H]1O", "note": "[paeoniflorin]", "values": [{"measurement": "increase in TNF-alpha, lipopolysaccharide binding protein, and CD14 mRNA expression in mouse liver", "setting": "[2]", "result": "significantly decreased"}, {"measurement": "serum ALT activities", "setting": "[2]", "result": "significantly decrease"}]}, {"molecule": "COc1ccc2cc3[n+](cc2c1OC)CCc1cc2c(cc1-3)OCO2", "note": "[berberine hydrochloride]", "values": [{"measurement": "hepatic fat degeneration", "setting": "[3]", "result": "attenuates"}]}, {"molecule": "N[C@@H](CCC(=O)N[C@@H](CS)C(=O)NCC(=O)O)C(=O)O", "note": "[glutathione, Glutathione]", "values": [{"measurement": "TNF-α activity", "setting": "[4]", "result": "inhibits"}]}]}
